In ChEMBL document CHEMBL1817662, “Swerilactones L-O, secoiridoids with C₁₂ and C₁₃ skeletons from Swertia mileensis” (J Nat Prod, 2011):

Experiments:
[1] = Cytotoxicity in human HepG2(2.2.15) cells after 72 hrs by MTT assay; assay type: cell-based
[2] = Selectivity index, ratio of CC50 for human HepG2(2.2.15) cells to IC50 for HBeAg antigen secretion in HBV infected in human HepG2(2.2.15) cells; assay type: functional
[3] = system: Hepatitis B virus; experiment: Antiviral activity against HBV infected in human HepG2(2.2.15) cells assessed as reduction in HBsAg antigen secretion after 72 hrs by ELISA; assay type: functional, organism-based; details: HepG2 2.2.15, 72 h
[4] = system: Hepatitis B virus; experiment: Antiviral activity against HBV infected in human HepG2(2.2.15) cells assessed as reduction in HBeAg antigen secretion after 72 hrs by ELISA; assay type: functional, organism-based; details: HepG2 2.2.15, 72 h
[5] = Selectivity index, ratio of CC50 for human HepG2(2.2.15) cells to IC50 for HBsAg antigen secretion in HBV infected in human HepG2(2.2.15) cells; assay type: functional

| Structure (SMILES) | IC50 [3] [µM] | IC50 [4] [µM] | CC50 at 72 h [1] [µM] | Ratio CC50/IC50 [2] | Ratio CC50/IC50 [5] |
| --- | --- | --- | --- | --- | --- |
| Nc1ccn([C@@H]2CS[C@H](CO)O2)c(=O)n1 [LAMIVUDINE] |  |  | 33200 | 1.1 |  |
| CC(=O)C[C@@H]1O[C@@H](C)C(=O)C2=C1C(=O)OCC2 [Swerilactone L] | 1470 | 880 | 1430 | 1.62 | <1 |

More lines, main results first:

| IC50 [3] [µM] | IC50 [4] [µM] | Structure (SMILES) | CC50 at 72 h [1] [µM] | Ratio CC50/IC50 [2] | Ratio CC50/IC50 [5] |
| --- | --- | --- | --- | --- | --- |
| > 1440 | > 1440 | CC(=O)/C=C/c1cccc2c1CCOC2=O [Swerilactone O] | > 1440 |  |  |
| > 510 | > 510 | CC(=O)C[C@H](O)c1cccc2c1CCOC2=O [Swerilactone N] | > 510 |  |  |
| 1200 | > 2690 | CC(=O)c1cc2c(c([C@H](C)O)c1)CCOC2=O [Swerilactone M] | 1840 | <1 | 1.53 |
